Reference: patent US20070059254A1, “Compositions for delivering 5-ht agonists across the oral mucosa and methods of use thereof” (TRANSORAL PHARMACEUTICALS, INC., priority 2003, published 2007)

How the values were obtained:
[1] = Sumatriptan membrane assay (dodecane membrane between donor and acceptor cell); assay type: in vitro ADME; settings: pH 9.0 to 10.0
From the text: Topics Med. Chem., 1:277-351 (2001). This assay uses a lipid-coated membrane to predict lipid mucosal membrane penetration. The membrane apparatus consists of a dodecane membrane sandwiched between a donor and acceptor cell. The lipid-coated membrane is less porous then the mucous membrane of the oral cavity. Thus, the enhancement seen in the membrane assay is very likely to be magnified in vivo. […] The final pH values of these solutions were adjusted using freshly prepared 0.01 M sodium bicarbonate/sodium carbonate buffer. Permeation was measured by determining the concentration of sumatriptan in the acceptor cell, and is expressed as Pe (effective permeability in centimeters per second).

[2] = Dissociation constant (pKa) and extent of ionization; assay type: physicochemical
From the text: Conversion of the ionized form to the un-ionized form for the 5-HT agonist is related to pH according to the formula: pH=pKa+Log10 (un-ionized concentration/ionized concentration). When the pH is the same as the pKa, equimolar concentrations of the un-ionized form and ionized form exist. […] As noted above, the un-ionized form is lipophilic and, therefore, more capable of passing through mucous membranes such as the oral mucosa than the ionized form, which is lipophobic in nature. Accordingly, increasing the pH of the saliva favors conversion of the ionized form into the un-ionized form for basic compounds such as the 5-HT agonists described herein, and the final pH can be determined by making use of the above formula. […] The final pH values of these solutions were adjusted using freshly prepared 0.01 M sodium bicarbonate/sodium carbonate buffer. Permeation was measured by determining the concentration of sumatriptan in the acceptor cell, and is expressed as Pe (effective permeability in centimeters per second).

change of effective permeability with pH [1]: increased with pH | un-ionized fraction ([2]; at pH 10.5): 90% | un-ionized fraction ([2]; at pH 11.5): 100%
Compound: CNS(=O)(=O)Cc1ccc2[nH]cc(CCN(C)C)c2c1 [sumatriptan]
